Converted amounts (≈) assume the structure as drawn. The source made the active and inactive calls. No cut-off for these calls is given here.
Tests used:
Spodoptera littoralis [1] = assay: Antifeedant activity against Spodoptera littoralis sixth-instar larvae fed on compound treated Solanum tuberosum leaves assessed as inhibition of feeding; type: functional, organism-based
[2] = Toxicity against Cricetulus griseus CHO (Chinese hamster ovary) cell by MTT assay; type: cell-based; details: CHO cells
[3] = tested on: Leptinotarsa decemlineata; assay: Antifeedant activity against Leptinotarsa decemlineata adults fed on compound treated Capsicum annuum leaves assessed as inhibition of feeding; type: functional, organism-based
Lactuca sativa [4] = assay: Phytotoxicity against Lactuca sativa var. Carrascoy (lettuce) assessed as inhibition of radicle length at 50 ug/cm2 after 24 to 144 hr; type: functional
Spodoptera littoralis [5] = assay: Antifeedant activity against Spodoptera littoralis L6 larvae assessed as food consumption level orally dosed with 40 ug after 72 hr relative to untreated control; type: functional
[6] = Toxicity against Spodoptera frugiperda (fall armyworm) Sf9 cells by MTT assay; type: cell-based
Spodoptera littoralis [7] = assay: Antifeedant activity against Spodoptera littoralis L6 larvae assessed as biomass gain orally dosed with 40 ug after 72 hr relative to untreated control; type: functional
Lactuca sativa [8] = assay: Phytotoxicity against Lactuca sativa var. Carrascoy (lettuce) assessed as inhibition of seed germination at 50 ug/cm2 after 24 hr; type: functional, organism-based
Rhopalosiphum padi = assay: Antifeedant activity against Rhopalosiphum padi adults fed on compound treated Hordeum vulgare annuum leaves assessed as feeding level at 50 ug/cm2 (reference value: 47 to 64%); type: functional
Myzus persicae = assay: Antifeedant activity against Myzus persicae (green peach aphid) adults fed on compound treated […] annuum leaves assessed as feeding level at 50 ug/cm2 (reference value: 43 to 70%); type: functional
Lactuca sativa [9] = assay: Phytotoxicity against Lactuca sativa var. Carrascoy (lettuce) assessed as inhibition of seed germination at 50 ug/cm2 after 48 hr; type: functional, organism-based
Lactuca sativa [10] = assay: Phytotoxicity against Lactuca sativa var. Carrascoy (lettuce) assessed as inhibition of seed germination at 50 ug/cm2 after 72 hr; type: functional, organism-based
Lactuca sativa [11] = assay: Phytotoxicity against Lactuca sativa var. Carrascoy (lettuce) assessed as inhibition of seed germination at 50 ug/cm2 up to 144 hr; type: functional, organism-based
Lactuca sativa [12] = assay: Phytotoxicity against Lactuca sativa var. Carrascoy (lettuce) assessed as inhibition of seed germination at 50 ug/cm2 after 96 hr; type: functional, organism-based

SMILES	EC50 (Spodoptera littoralis [1])	EC50 [2]	EC50 [3]	inhibition at 50 µg/cm2 (Lactuca sativa [4])	Activity (Spodoptera littoralis [5])	EC50 [6]	Activity (Spodoptera littoralis [7])	inhibition (Lactuca sativa [8])	Activity (Rhopalosiphum padi)	Activity (Myzus persicae)	inhibition (Lactuca sativa [9])	inhibition (Lactuca sativa [10])	inhibition (Lactuca sativa [11])	inhibition (Lactuca sativa [12])
C=C1C(=O)O[C@@H]2CCN3CC=C(COC(=O)[C@](C)(O)[C@H](C)[C@H]1C)[C@H]23	> 50 microg/cm2	13.2 µg/mL (≈ 39.4 µM)	> 50 microg/cm2	< 50%	98%	> 100 µg/mL	90%	–	–	–	–	–	–	–
C/C=C1\C[C@@H](C)[C@](O)(CO)C(=O)OCC2=CCN3CC[C@@H](OC1=O)[C@@H]23 (stereo in doubt; 7)	–	–	–	–	–	–	–	Active	–	–	–	–	–	–
C/C=C1/C[C@@H](C)[C@](O)(CO)C(=O)OCC2=CCN3CC[C@@H](OC1=O)[C@@H]23 (stereo in doubt; 7) [RETRORSINE]	–	> 100 µg/mL	–	–	–	–	–	–	–	–	–	–	–	–
C/C=C1\C[C@@H](C)[C@](O)(CO)C(=O)OCC2=CCN3CC[C@@H](OC1=O)[C@@H]23 (stereo in doubt; 7) [RETRORSINE]	> 50 microg/cm2	–	> 50 microg/cm2	–	88%	–	90%	–	46%	44%	–	–	–	–
C/C=C1\C[C@@H](C)[C@](O)(CO)C(=O)OCC2=CCN3CC[C@@H](OC1=O)[C@@H]23 (stereo in doubt; 8)	–	–	–	–	–	–	–	Active	–	–	–	–	–	–
C/C=C1\C[C@@H](C)[C@](O)(CO)C(=O)OCC2=CCN3CC[C@@H](OC1=O)[C@@H]23 (stereo in doubt; 8) [RETRORSINE]	–	> 100 µg/mL	–	< 50%	92%	> 100 µg/mL	102%	–	40%	30%	–	–	–	–
C/C=C1/C[C@@H](C)[C@@](C)(OC(C)=O)C(=O)OC/C2=C/CN(C)CC[C@@H](OC1=O)C2=O [ACETYLSENKIRKINE]	> 50 microg/cm2	–	> 50 microg/cm2	< 50%	88%	–	100%	Active	42%	35%	Active	–	–	–
C/C=C1\C[C@@H](C)[C@](O)(COC(C)=O)C(=O)OCC2=CCN3CC[C@@H](OC1=O)[C@@H]23 [ACETYLUSARAMINE]	–	> 100 µg/mL	–	< 50%	106%	> 100 µg/mL	60%	Active	–	40%	–	–	–	–
C/C=C(/C)C(=O)O[C@@H]1CC[N+]2([O-])CC=C(COC(=O)[C@@](O)([C@H](C)O)C(C)(C)O)[C@H]12 (stereo not given in full) [ECHIMIDINE N-OXIDE]	> 50 microg/cm2	–	> 50 microg/cm2	–	113%	–	102%	–	43%	40%	–	–	–	–
C/C=C(/C)C(=O)O[C@@H]1CCN2CC=C(COC(=O)[C@@](O)([C@H](C)O)C(C)(C)O)[C@H]12 [ECHIMIDINE]	> 50 microg/cm2	–	1.4 microg/cm2	–	165%	–	118%	–	36%	40%	–	–	–	–
C/C=C1/C[C@@]2(CO)O[C@@]2(C)C(=O)OCC2=CCN3CC[C@@H](OC1=O)[C@@H]23 [ERUCIFOLINE]	> 50 microg/cm2	–	> 50 microg/cm2	< 50%	102%	–	106%	Active	43%	31%	–	–	–	–
C/C=C1\C[C@@H](C)[C@@](C)(O)C(=O)OCC2=CCN3CC[C@@H](OC1=O)[C@@H]23 [INTEGERRIMINE]	> 100 microg/cm2	> 100 µg/mL	3.4 microg/cm2	< 50%	88%	> 100 µg/mL	89%	–	43%	57%	–	–	–	–
C[C@H]1C(=O)O[C@@H]2CCN3CC=C(COC(=O)[C@](C)(O)[C@]1(C)O)[C@H]23 [MONOCROTALINE]	> 50 microg/cm2	> 100 µg/mL	> 50 microg/cm2	< 50%	98%	> 100 µg/mL	47%	Active	37%	49%	Active	Active	Active	Active
C/C=C1/C[C@@H](C)[C@@](C)(O)C(=O)OCC2=CCN3CC[C@@H](OC1=O)[C@@H]23 [SENECIONINE]	> 50 microg/cm2	> 100 µg/mL	1.3 microg/cm2	< 50%	84%	> 100 µg/mL	84%	–	40%	40%	–	–	–	–
C=C1C/C(=C/C)C(=O)O[C@@H]2CCN3CC=C(COC(=O)[C@]1(C)O)[C@H]23 [SENECIPHYLLINE]	50 microg/cm2	> 100 µg/mL	1.7 microg/cm2	< 50%	82%	> 100 µg/mL	87%	–	42%	50%	–	–	–	–
C/C=C1\C[C@@H](C)[C@@](C)(O)C(=O)OC/C2=C/CN(C)CC[C@@H](OC1=O)C2=O [SENKIRKINE]	> 50 microg/cm2	–	> 50 microg/cm2	< 50%	105%	–	116%	Active	53%	35%	Active	Active	–	Active
C=C1C/C(=C\C)C(=O)O[C@@H]2CCN3CC=C(COC(=O)[C@]1(C)O)[C@H]23 [SPARTIOIDINE]	0.2 microg/cm2	> 100 µg/mL	4.8 microg/cm2	< 50%	97%	> 100 µg/mL	90%	–	42%	35%	–	–	–	–

Reference: ChEMBL document CHEMBL3044600 (Biochem Syst Ecol, 2008)
